One data set has as its system red blood cells. The experiment in a line: Hemolysis. To be noted: 4 hours. It is filed as cell-based, human. The method, then: Hemolysis: Peptide induced hemolysis was evaluated according to methods described previously [Hilchie, A. L., et al. (2016). Mastoparan is a membranolytic anti-cancer peptide that works synergistically with gemcitabine in a mouse model of mammary carcinoma. Biochimica Et Biophysica Acta, 1858(12), 3195-3204]. Briefly, red blood cells were obtained, with human ethics approval, from the blood of healthy volunteers collected in a sodium heparin tube and then rinsed three times in PBS, centrifuging between washes, to obtain the hematocrit (100% RBC). A 2.5% RBCs suspension was exposed to peptide at varying concentrations and incubated at 37 C in a 5% CO2 humidified atmosphere for 4 hours. Supernatants were collected following centrifugation (1100 rpm) and transferred to a flat bottom microtitre plate. The absorbance (490 nm) of each supernatant was measured on a BioTek Epoch Microplate Spectrophotometer. Percent hemolysis was calculated by comparing the absorbance arising from peptide treated cells to RBCs treated with […] (0% hemolysis) or lysed with 1% Triton X-100 (100% hemolysis).

Data set [1] is described as follows: Peptide aggregation in RPMI + 10% FBS with PBMCs (microscopy). The class given is physicochemical. The conditions noted are these: 200 μg/ml or highest concentration, overnight. The method, then: Peptide Aggregation: Peptide aggregation was assessed qualitatively by examining samples of peptides mixed with PBMCs following overnight incubation at 37 °C and 5% CO2. All samples were prepared in RPMI media containing 10% FBS the same manner as the cytotoxicity assays described above. Visualization of aggregates was done using a Nikon Eclipse TS100 Inverted Microscope at 10× magnification.
In aggregation studies, peptides were added to PBMCs in RPMI media containing 10% FBS and incubated overnight at 37 °C in 5% CO2.
The peptides were also evaluated for their tendency to aggregate when added to RPMI tissue culture media containing 10% fetal bovine serum in the presence of PBMCs. Peptides were added to PBMCs in RPMI media containing 10% FBS and incubated overnight at 37 °C in 5% CO2. […] Compared to a highly aggregation prone peptide, 1018 [Haney, E. F., et al. (2017). Aggregation and its influence on the immunomodulatory activity of synthetic innate defense regulator peptides.
As with the DJK-5 derivatives above, the AB103-D derivatives were evaluated for their tendency to aggregate when added to RPMI tissue culture media containing 10% fetal bovine serum in the presence of PBMCs. Peptides were added to PBMCs in RPMI media containing 10% FBS and incubated overnight at 37 °C in 5% CO2.

Data set [2] has as its system 3-day-old oral plaque (multispecies) biofilms. Put plainly: Oral plaque biofilm model, long-term (1-3 days) exposure, dead cell volume. It is filed as cell-based. The conditions noted are these: 10 μg/mL, 1 or 3 days (FIG. 10).
The subject of data set [3] is 3-day-old oral plaque biofilms. Put plainly: Oral plaque biofilm model, brief (1 minute) exposure, dead cell volume. The class given is cell-based. The conditions noted are these: 10 μg/mL, 1 minute (FIG. 11).
Data set [4] deals with peripheral blood mononuclear cells (PBMCs). Put plainly: Cytotoxicity (LDH release), PBMCs. In general terms: Release of lactate dehydrogenase indicates damage to the cell membrane.
In data set [5] the test system is P. aeruginosa PAO1 biofilms. Put plainly: Biofilm inhibition by SPOT-synthesized AB103-D variants (crystal violet), P. aeruginosa. The class given is cell-based, Pseudomonas aeruginosa. The conditions noted are these: P. aeruginosa PAO1, SPOT peptides.
For the next data set, the system named is MRSA USA300 biofilms. The experiment in a line: Biofilm inhibition by >95% pure peptides (crystal violet), MRSA. It is filed as cell-based, methicillin resistant Staphylococcus aureus. To be noted: MRSA USA300 biofilms, >95% pure peptides, 10% TSB + 0.1% glucose.
The subject of the next data set is P. aeruginosa PAO1. Put plainly: MIC (broth microdilution) of peptides, P. aeruginosa. To be noted: mode of three biological replicates. The class given is cell-based, Pseudomonas aeruginosa. The method, then: (§1) Minimal inhibitory concentration (MIC) against planktonic bacteria: The MIC of the synthetic peptides was determined in Mueller-Hinton broth (MHB) using the broth microdilution method described previously [Wiegand, I., Hilpert, K., & Hancock, R. E. (2008). Agar and broth dilution methods to determine the minimal inhibitory concentration (MIC) of antimicrobial substances. Nature Protocols, 3(2), 163-175]. Briefly, 10 μl of a 10× concentrated peptide solution was placed in the bottom of a well in a 96-well polypropylene round bottom plate (Corning Inc.). A bacterial suspension of ~5×10^5 CFU/ml was prepared from an overnight culture and 90 μl of this was added to each well. […] Bacteria tested included P. aeruginosa PAO1, MRSA USA300 LAC, Staphylococcus haemolyticus, Staphylococcus epidermidis, Klebsiella pneumoniae and Streptococcus salivarius.
(§2) Finally, the AB103-D derivatives that were the least aggregation prone and which produced the lowest toxic effects in vivo were evaluated for their direct antibacterial activity towards several pathogens of clinical relevance using a standard minimum inhibitory concentration (MIC) assay [Wiegand, I., Hilpert, K., & Hancock, R. E. (2008). Agar and broth dilution methods to determine the minimal inhibitory concentration (MIC) of antimicrobial substances. Nature Protocols, 3(2), 163-175]. Specifically, peptides AB110-D, AB111-D, AB114-D and AB115-D were tested against P. aeruginosa PAO1, MRSA USA 300, Staphylococcus haemolyticus, Staphylococcus epidermidis, Klebsiella pneumoniae and Streptococcus salivarius and compared against the antibacterial activity of DJK-5 and AB103-D (Table 7). Overall, the antibacterial potency of all of the AB103-D derivatives was stronger than that seen for DJK-5, particularly in the case of the Gram-negative pathogens P. aeruginosa and K. pneumoniae. […]
(In general: In broth dilution the organism is exposed to a series of concentrations in liquid medium.)

In the next data set the test system is MRSA USA 300. Put plainly: MIC (broth microdilution) of peptides, MRSA. The class given is cell-based, methicillin resistant Staphylococcus aureus. The conditions noted are these: MRSA USA300; mode of three biological replicates. The procedure:
as §1, §2

Data set [6] deals with Staphylococcus haemolyticus. Put plainly: MIC (broth microdilution) of peptides, S. haemolyticus. To be noted: mode of three biological replicates. It is filed as cell-based. The procedure: as §1, §2
Data set [7] deals with Staphylococcus epidermidis. Put plainly: MIC (broth microdilution) of peptides, S. epidermidis. It is filed as cell-based. To be noted: mode of three biological replicates. The method, then: as §1, §2
A further data set concerns Klebsiella pneumoniae. The experiment in a line: MIC (broth microdilution) of peptides, K. pneumoniae. It is filed as cell-based. The conditions noted are these: mode of three biological replicates. The method, then:
as §1, §2

Another data set relates to Streptococcus salivarius. The experiment in a line: MIC (broth microdilution) of peptides, S. salivarius. It is filed as cell-based. The conditions noted are these: mode of three biological replicates. The procedure:
as §1, §2

Data set [8] in a line: Subdermal murine toxicity model. The conditions noted are these: for Clinical score: 1 hour after subcutaneous administration, comparator DJK-5; for Average cyst size compared to DJK-5: 16 hours after administration, 4 mg/kg. The method, then:
FIGS. 14A-14B show murine subdermal toxicity assessment of AB103-D derived peptides. Clinical scores were recorded for each peptide treated mouse one hour after peptide administration (FIG. 14A). […] The presence of a cyst or lesion was recorded 16 hours after peptide administration and the size of the cyst was measured using calipers (FIG. 14B). Data shown are the mean of two independent replicates at a peptide dose of 4 mg/kg.
Subdermal murine toxicity model: A subdermal toxicity mouse model was used to evaluate whether peptides induced localized toxicity of treated cutaneous tissue. Mice were anesthetized with 2.5-3% isoflurane and their fur was removed by shaving followed by application of a chemical depilatory. […] Mice were visually assessed and received clinical scores for a battery of signs or symptoms (activity/behaviour change, appearance/grooming, hydration, pain, cyst formation), for which a score of zero was given to animals that appeared normal. Animals were weighed and clinical scores were totalled. Following an overnight (16 h) incubation, mice were scored and weighed then euthanized with CO2 followed by cervical dislocation. Mice were imaged and cysts (swollen, inflamed tissue) were measured using a caliper. Animal experiments were performed in accordance with the Canadian Council on Animal Care (CCAC) guidelines and were approved by the University of British Columbia Animal Care Committee. Female CD-1 mice were purchased from Charles River Laboratories, Inc. (Wilmington, MA). All mice were 8 weeks of age and weighed 25±5 g at the time of the experiment. Animals were group housed in cohorts of three to four littermates. Standard animal husbandry practices were employed.

In data set [9] the test system is MRSA USA300 planktonic cells. Put plainly: Planktonic growth inhibition by pure AB103-D derivatives, MRSA. It is filed as cell-based, methicillin resistant Staphylococcus aureus. The procedure: The effect of peptide on bacterial and biofilm growth was assessed using the biofilm inhibition assay [Haney, E. F., Trimble, M. J., & Hancock, R. E. W. (2021) FIGS. 20A-20D. Microtiter plate assays to assess antibiofilm activity against bacteria. Nature Protocols, 16(5), 2615-2632]. The effect of peptide on planktonic growth and biofilm growth of MRSA USA300 (FIG. 20A, FIG. 20C) and P. aeruginosa PAO1 (FIGS. 20B, 20D) was assessed and compared to the activity seen for AB103-D (gray stars) and DJK5 (gray open circles). Data shown are the average of three biological replicates. Error bars have been omitted for clarity. […]. The results indicated enhanced antibiofilm and antibacterial activity of AB103-D derivatives compared to DJK5.

The subject of data set [10] is P. aeruginosa PAO1 biofilms. To be noted: P. aeruginosa PAO1 biofilms; >95% pure peptides; crystal violet; BM2 minimal media.
Data set [11] concerns MRSA biofilms (USA300 LAC). To be noted: MRSA biofilms, SPOT peptides.

The values that follow come from patent US20260374818A1, “CATIONIC PEPTIDES WITH BROAD SPECTRUM ACTIVITY” (priority 2023, published 2026).

Structures are written as SMILES. ≈ marks a conversion by molar mass, not a printed value. Where a SMILES comes first, the peptide text is derived from it. [ ]: non-standard residue; d: D form. Bounds are passed on as bounds.

Usually MIC stands for the lowest concentration that inhibits growth of the organism. Low readings indicate inhibition by little substance, high ones a need for much substance.

For `CC[C@@H](C)[C@@H](NC(=O)[C@@H](C)NC(=O)[C@@H](CCCNC(=N)N)NC(=O)[C@@H](Cc1c[nH]c2ccccc12)NC(=O)[C@@H](CCC(N)=O)NC(=O)[C@H](N)C(C)C)C(=O)N[C@@H](C(=O)N[C@@H](C(=O)N[C@H](CCCNC(=N)N)C(=O)N[C@@H](C(=O)N[C@@H](C(=O)N[C@H](CCCNC(=N)N)C(N)=O)[C@H](C)CC)C(C)C)C(C)C)[C@H](C)CC` [AB106-D, vqwraiivrvir-NH2] (H-[dV][dQ][dW][dR][dA][dI][dI][dV][dR][dV][dI][dR]-NH2), in the data set on red blood cells, the Hemolysis result was “only marginally toxic at the highest peptide concentration evaluated”. The Peptide aggregation result in [1] was “marginal peptide aggregation”. The “Killing of oral plaque biofilms, long-term exposure” value in data set [2] is reported as “activity comparable to peptide DJK-5”. The “Killing of oral plaque biofilms, brief exposure” value in data set [3] is “comparable to or better than peptide DJK-5”. In data set [4], the “Cytotoxicity (LDH)” value is on record as “only marginally toxic at the highest peptide concentration evaluated”.
`CC[C@@H](C)[C@@H](NC(=O)[C@@H](C)NC(=O)[C@@H](CCCNC(=N)N)NC(=O)[C@@H](Cc1c[nH]c2ccccc12)NC(=O)[C@@H](CCC(N)=O)NC(=O)[C@H](NC(=O)[C@@H](CCCNC(=N)N)NC(=O)[C@@H](Cc1c[nH]c2ccccc12)NC(=O)[C@H](NC(=O)[C@@H](CCCNC(=N)N)NC(=O)[C@H](NC(=O)[C@H](N)CCCNC(=N)N)C(C)C)C(C)C)C(C)C)C(N)=O` [AB111-D, rvrvwrvqwrai] (H-[dR][dV][dR][dV][dW][dR][dV][dQ][dW][dR][dA][dI]-NH2): in data set [5], the “Activity against PAO1 biofilms compared to AB103-D” value is “activity superior to that of AB103-D”. Further, the “minimum inhibitory concentration of peptide that inhibited at least 90% of biofilm growth (MBIC90)” value in the data set on MRSA USA300 biofilms stood at 0.5 µM; in [10], 4 µM. Also, the minimal inhibitory concentration (MIC) was 2 µg/mL (≈ 1.23 µM) against P. aeruginosa PAO1; 0.8 µg/mL (≈ 0.493 µM) in the data set with MRSA USA 300; 0.8 µg/mL (≈ 0.493 µM) in data set [6]; 0.8 µg/mL (≈ 0.493 µM) in data set [7]; 0.8 µg/mL (≈ 0.493 µM) against Klebsiella pneumoniae; 0.8 µg/mL (≈ 0.493 µM) in the data set with Streptococcus salivarius. This compound came in with a Clinical score in data set [8] below 2. The “Average cyst size compared to DJK-5” value in [8] is recorded as “smaller than those induced by DJK-5”. Besides, the Planktonic growth inhibition result in data set [9] was “among the most active against planktonic cells”.
Take `CC[C@@H](C)[C@@H](NC(=O)[C@@H](C)NC(=O)[C@@H](CCCNC(=N)N)NC(=O)[C@@H](Cc1c[nH]c2ccccc12)NC(=O)[C@@H](CCCCN)NC(=O)[C@H](NC(=O)[C@@H](CCCNC(=N)N)NC(=O)[C@H](NC(=O)[C@H](NC(=O)[C@@H](CCCNC(=N)N)NC(=O)[C@H](NC(=O)[C@H](N)CCCNC(=N)N)C(C)C)C(C)C)[C@H](C)CC)C(C)C)C(N)=O` [AB114-D, rvrvirvkwrai] (H-[dR][dV][dR][dV][dI][dR][dV][dK][dW][dR][dA][dI]-NH2): the “minimum inhibitory concentration of peptide that inhibited at least 90% of biofilm growth (MBIC90)” value was 0.5 µM in the data set with MRSA USA300 biofilms and 8 µM in [10]. Further, the MIC amounted to 2 µg/mL (≈ 1.29 µM) with P. aeruginosa PAO1; 0.8 µg/mL (≈ 0.516 µM) against MRSA USA 300; 0.8 µg/mL (≈ 0.516 µM) in [6]; 0.4 µg/mL (≈ 0.258 µM) in data set [7]; 0.8 µg/mL (≈ 0.516 µM) with Klebsiella pneumoniae; 0.8 µg/mL (≈ 0.516 µM) against Streptococcus salivarius. Further, the Clinical score in [8] is on record as below 2. The “Average cyst size compared to DJK-5” value in data set [8] is reported as “smaller than those induced by DJK-5”. In data set [9], the Planktonic growth inhibition result was “among the most active against planktonic cells”. In data set [11], the “Better activity vs. MRSA cf. AB103-D” value was around 2 fold.
